Values quoted from earlier work, collected in US10968484B2, “Methods of identifying responses to map kinase inhibition therapy” (The Broad Institute, Inc., priority 2013, dated 2021).
Read-outs that look alike come from different tables or passages of the source.

System: BRAF_V600-mutant melanomas (cell lines)
Settings: read-out: PLX4720 IC50

IC50 (resistance class of BRAF_V600-mutant melanoma cell lines): ≥ 8 µM
IC50 (sensitive class of BRAF_V600-mutant melanoma cell lines): < 1.6 µM
SMILES: CCCS(=O)(=O)Nc1ccc(F)c(C(=O)c2c[nH]c3ncc(Cl)cc23)c1F [PLX4720]
